Test results taken from patent US11590116B2 (THERAVANCE BIOPHARMA R&D IP, LLC, priority 2019, dated 2023).

Key:
[1] = system: TGF-β-stimulated SMAD3 phosphorylation in BEAS-2B cells; assay: Cellular ALK5 potency assay, inhibition of TGF-β stimulated pSMAD3 formation in BEAS-2B cells; assay type: cell-based; conditions: Homo sapiens; inhibition of TGF-β stimulated pSMAD3 formation, BEAS-2B cells; read-out: BEAS2B pIC50 (converted)
Outline: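 BEAS-2B human lung epithelial cells pre-treated 1 h at 37° C with compound in HBSS/25 mM HEPES/1% BSA, then stimulated 30 min with 10 ng/mL TGF-β (final). Lysates assayed for pSMAD3 by AlphaLISA; pIC50 from dose-dependent change versus stimulated untreated cells.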

[2] = target: T1, recombinant human ALK5 (TGF-βR1) protein (Homo sapiens, UniProt P36897); assay: Biochemical ALK5 (TGF-βR1) assay to measure pKi (LANCE Ultra ULight kinase assay); conditions: apparent pKi from pIC50 by Cheng-Prusoff, read-out: ALK5 pKi (converted)
T1 construct: purchased Life Technologies PR9075A
T1 sequence (P36897 34-503): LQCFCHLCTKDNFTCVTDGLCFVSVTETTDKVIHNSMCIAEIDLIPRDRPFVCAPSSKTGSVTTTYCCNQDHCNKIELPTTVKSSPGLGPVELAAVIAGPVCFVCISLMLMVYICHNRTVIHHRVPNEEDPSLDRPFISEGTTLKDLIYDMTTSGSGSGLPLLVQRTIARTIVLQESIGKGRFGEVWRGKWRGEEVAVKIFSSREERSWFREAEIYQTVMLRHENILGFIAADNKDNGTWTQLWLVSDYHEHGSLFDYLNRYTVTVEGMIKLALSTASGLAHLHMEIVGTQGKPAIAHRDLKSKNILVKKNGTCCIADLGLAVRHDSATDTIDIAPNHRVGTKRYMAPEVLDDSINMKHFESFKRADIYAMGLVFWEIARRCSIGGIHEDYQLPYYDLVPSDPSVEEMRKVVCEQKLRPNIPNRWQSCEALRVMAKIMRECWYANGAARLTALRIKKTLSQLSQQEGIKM
Outline: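 Compounds (10 μM to 25 pM) preincubated 60 minutes at room temperature with enzyme, then reaction run 60 minutes at 37° C with ATP added as 125 μM (5× final). Stopped with EDTA plus Eu-anti-phospho-Topoisomerase 2-alpha (Thr1342) antibody, TR-FRET read at 665 nm; pIC50 converted to pKi via Cheng-Prusoff.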

SMILES | Ki [2] [nM] | IC50 [1] [nM]
Cc1cccc(-c2n[nH]cc2-c2ccc3ncc(N4CCn5nc(C6=CCC(N)CC6)nc5C4)cc3n2)n1 (centres unmarked) [Compound 268, 4-[7-[6-[3-(6-methyl-2-pyridyl)-1H-pyrazol-4-yl]-1,5-naphthyridin-3-yl]-6,8-dihydro-5H-[1,2,4]triazolo[1,5-a]pyrazin-2-yl]cyclohex-3-en-1-amine] | 0.0398 to 0.316 | 200 to 1260
Cc1cccc(-c2n[nH]cc2-c2ccc3ncc(C(=O)NCCN4CCN(C(C)C)CC4)cc3n2)n1 [Compound 378, N-[2-(4-isopropylpiperazin-1-yl)ethyl]-6-[3-(6-methyl-2-pyridyl)-1H-pyrazol-4-yl]-1,5-naphthyridine-3-carboxamide] | 0.0398 to 0.316 | 25.1 to 158
Cc1cccc(-c2nnn(Cc3ccccc3)c2-c2ccc3ncc(N4CCC(N(C)C)C4)cc3c2)n1 (centres unmarked) [Compound 191, 1-[6-[3-benzyl-5-(6-methyl-2-pyridyl)triazol-4-yl]-3-quinolyl]-N,N-dimethyl-pyrrolidin-3-amine] | 0.0398 to 0.316 | 25.1 to 158
COc1[nH]nc(-c2cccc(C)n2)c1-c1ccc2ncc(-c3cnn4c3NCC4)cc2n1 [Compound 371, 7-(2,3-dihydro-1H-imidazo[1,2-b]pyrazol-7-yl)-2-[5-methoxy-3-(6-methyl-2-pyridyl)-1H-pyrazol-4-yl]-1,5-naphthyridine] | 0.398 to 3.16 | 200 to 1260
COc1cnc2ccc(-c3c[nH]nc3-c3cccc(C)n3)nc2c1 [Compound 321, 7-methoxy-2-[3-(6-methyl-2-pyridyl)-1H-pyrazol-4-yl]-1,5-naphthyridine] | < 0.0316 | < 20
Cc1cccc(-c2n[nH]cc2-c2ccc3ncc(-c4cnc(N)s4)cc3n2)n1 [Compound 333, 5-[6-[3-(6-methyl-2-pyridyl)-1H-pyrazol-4-yl]-1,5-naphthyridin-3-yl]thiazol-2-amine] | 0.0398 to 0.316 | 25.1 to 158
CNCCN(C)C1CCN(c2cnc3ccc(-c4c[nH]nc4-c4cccc(C)n4)nc3c2)CC1 [Compound 18, N,N′-dimethyl-N′-[1-[6-[3-(6-methyl-2-pyridyl)-1H-pyrazol-4-yl]-1,5-naphthyridin-3-yl]-4-piperidyl]ethane-1,2-diamine] | 0.0398 to 0.316 | 200 to 1260
Cc1cccc(-c2n[nH]cc2-c2ccc3ncc(NC4CCNCC4)cc3n2)n1 [Compound 113, 6-[3-(6-methyl-2-pyridyl)-1H-pyrazol-4-yl]-N-(4-piperidyl)-1,5-naphthyridin-3-amine] | 0.0398 to 0.316 | 200 to 1260
COCC1CN(c2cnc3ccc(-c4c[nH]nc4-c4cccc(C)n4)nc3c2)CCN1C (racemic) [Compound 354, 2-[3-(6-methyl-2-pyridyl)-1H-pyrazol-4-yl]-7-[rac-(3R)-3-(methoxymethyl)-4-methyl-piperazin-1-yl]-1,5-naphthyridine] | < 0.0316 | 25.1 to 158
Cc1cccc(-c2[nH]cnc2-c2ccc3ncc(C4=CCC5(CC4)CNC5)cc3c2)n1 [Compound 294, 3-(2-azaspiro[3.5]non-6-en-7-yl)-6-[5-(6-methyl-2-pyridyl)-1H-imidazol-4-yl]quinoline] | 0.0398 to 0.316 | 25.1 to 158
Cc1nc(-c2n[nH]cc2-c2ccc3ncc(N4CCC(N5CCCC5)CC4)cc3n2)ccc1F [Compound 114, 2-[3-(5-fluoro-6-methyl-2-pyridyl)-1H-pyrazol-4-yl]-7-(4-pyrrolidin-1-yl-1-piperidyl)-1,5-naphthyridine] | < 0.0316 | 25.1 to 158

The next lines start with results.

Ki [2] [nM] | SMILES | IC50 [1] [nM]
0.0398 to 0.316 | Cc1cccc(-c2[nH]cnc2-c2ccc3ncc(NCCN4CCC[C@H](N)C4)cc3c2)n1 [Compound 623, N-[2-[(3S)-3-amino-1-piperidyl]ethyl]-6-[5-(6-methyl-2-pyridyl)-1H-imidazol-4-yl]quinolin-3-amine] | 200 to 1260
0.0398 to 0.316 | Cc1cccc(-c2[nH]cnc2-c2ccc3ncc(C4=CC[C@H](NC(=O)[C@H]5CCCN5)CC4)cc3c2)n1 [Compound 776, (2R)-N-[(1R)-4-[6-[5-(6-methyl-2-pyridyl)-1H-imidazol-4-yl]-3-quinolyl]cyclohex-3-en-1-yl]pyrrolidine-2-carboxamide] | 25.1 to 158
0.0398 to 0.316 | Cc1cccc(-c2[nH]cnc2-c2ccc3ncc(-c4csc(C(=O)OCCN5CCC[C@@H](N)C5)c4)cc3c2)n1 [Compound 1178, 2-[(3R)-3-amino-1-piperidyl]ethyl 4-[6-[5-(6-methyl-2-pyridyl)-1H-imidazol-4-yl]-3-quinolyl]thiophene-2-carboxylate] | 25.1 to 158
0.0398 to 0.316 | CCOC(=O)CCc1ccnc2ccc(-c3c[nH]nc3-c3cccc(C)n3)nc12 [Compound 814, ethyl 3-[6-[3-(6-methyl-2-pyridyl)-1H-pyrazol-4-yl]-1,5-naphthyridin-4-yl]propanoate] | 25.1 to 158
0.0398 to 0.316 | Cc1cccc(-c2[nH]cnc2-c2ccc3ncc(NCCN4CC5(CNC5)C4)cc3c2)n1 [Compound 709, N-[2-(2,6-diazaspiro[3.3]heptan-2-yl)ethyl]-6-[5-(6-methyl-2-pyridyl)-1H-imidazol-4-yl]quinolin-3-amine] | 25.1 to 158
< 0.0316 | Cc1nc(-c2n[nH]cc2-c2ccc3ncc(-c4cc5n(n4)CCN5)cc3n2)ccc1F [Compound 574, 7-(2,3-dihydro-1H-imidazo[1,2-b]pyrazol-6-yl)-2-[3-(5-fluoro-6-methyl-2-pyridyl)-1H-pyrazol-4-yl]-1,5-naphthyridine] | < 20
0.0398 to 0.316 | Cc1cccc(-c2[nH]nnc2-c2ccc3ncc(NCCN4CCN(C(C)C)CC4)cc3c2)n1 [Compound 621, N-(2-(4-isopropylpiperazin-1-yl)ethyl)-6-(5-(6-methylpyridin-2-yl)-1H-1,2,3-triazol-4-yl)quinolin-3-amine] | 25.1 to 158
< 0.0316 | Cc1cccc(-c2[nH]cnc2-c2ccc3ncc(-c4csc(C(=O)OC[C@H]5CC[C@H](N)CC5)c4)cc3c2)n1 [Compound 1171, (4-aminocyclohexyl)methyl 4-[6-[5-(6-methyl-2-pyridyl)-1H-imidazol-4-yl]-3-quinolyl]thiophene-2-carboxylate] | 25.1 to 158
0.398 to 3.16 | Cc1cccc(-c2n[nH]cc2-c2ccc3nccc(C(N)=O)c3n2)n1 [Compound 806, 6-[3-(6-methyl-2-pyridyl)-1H-pyrazol-4-yl]-1,5-naphthyridine-4-carboxamide] | 25.1 to 158
< 0.0316 | CNCCn1cc(-c2cnc3ccc(-c4c[nH]nc4-c4cccc(C)n4)nc3c2)nn1 [Compound 554, N-methyl-2-[4-[6-[3-(6-methyl-2-pyridyl)-1H-pyrazol-4-yl]-1,5-naphthyridin-3-yl]triazol-1-yl]ethanamine] | 25.1 to 158
0.0398 to 0.316 | Cc1cccc(-c2[nH]cnc2-c2ccc3ncc(N)cc3c2)n1 [Compound 594, 6-[5-(6-methyl-2-pyridyl)-1H-imidazol-4-yl]quinolin-3-amine] | < 20
0.0398 to 0.316 | Cc1cccc(-c2n[nH]cc2-c2ccc3ncc(-c4nc(C(F)(F)F)n5c4CNCC5)cc3n2)n1 [Compound 465, 2-[3-(6-methyl-2-pyridyl)-1H-pyrazol-4-yl]-7-[3-(trifluoromethyl)-5,6,7,8-tetrahydroimidazo[1,5-a]pyrazin-1-yl]-1,5-naphthyridine] | 25.1 to 158
0.398 to 3.16 | FC(F)(F)c1cccc(-c2n[nH]cc2-c2ccc3ncc(N4CCCNCC4)cc3n2)n1 [Compound 383, 7-(1,4-diazepan-1-yl)-2-[3-[6-(trifluoromethyl)-2-pyridyl]-1H-pyrazol-4-yl]-1,5-naphthyridine] | 200 to 1260
0.0398 to 0.316 | Cc1cccc(-c2[nH]cnc2-c2ccc3ncc(-c4cccc(C(=O)O)c4)cc3c2)n1 [Compound 794, 3-[6-[5-(6-methyl-2-pyridyl)-1H-imidazol-4-yl]-3-quinolyl]benzoic acid] | 1580 to 10000
0.0398 to 0.316 | Cc1nc(-c2nc3ccccn3c2-c2ccc3ncc(-c4cnc5n4CCNC5)cc3n2)ccc1F [Compound 560, 2-[2-(5-fluoro-6-methyl-2-pyridyl)imidazo[1,2-a]pyridin-3-yl]-7-(5,6,7,8-tetrahydroimidazo[1,2-a]pyrazin-3-yl)-1,5-naphthyridine] | 25.1 to 158
0.0398 to 0.316 | Cc1cccc(-c2[nH]cnc2-c2ccc3ncc(-c4cc(C(=O)OC5CNC5)ccn4)cc3c2)n1 [Compound 1074, azetidin-3-yl 2-[6-[5-(6-methyl-2-pyridyl)-1H-imidazol-4-yl]-3-quinolyl]pyridine-4-carboxylate] | 25.1 to 158
0.0398 to 0.316 | Cc1cccc(-c2[nH]cnc2-c2ccc3ncc(-c4ccc(C(=O)OC5CNC5)s4)cc3c2)n1 [Compound 1006, azetidin-3-yl 5-(6-(5-(6-methylpyridin-2-yl)-1H-imidazol-4-yl)quinolin-3-yl)thiophene-2-carboxylate] | 25.1 to 158
